From ChEMBL document CHEMBL1121623, “Thrombin inhibitors. 3. Carboxyl-containing amide derivatives of N alpha-substituted L-arginine” (J Med Chem, 1980)

What was measured:
Prothrombin [1] = target: T1, Prothrombin (Bos taurus, UniProt P00735); experiment: (§1) Concentration at which the clotting time was prolonged by twice that of the control by inhibiting thrombin; format: functional; details: read-out: I50
Prothrombin [2] = target: T1, Prothrombin; experiment: as §1; details: read-out: I50

SMILES	IC50 (Prothrombin [1]) [µM]	IC50 (Prothrombin [2]) [µM]
COCCN(CC(=O)O)C(=O)C(CCCN=C(N)N)NS(=O)(=O)c1ccc2c(c1)-c1ccccc1C2 (configuration not stated)	0.4	–
CC1CCN(C(=O)C(CCCN=C(N)N)NS(=O)(=O)c2cccc3c(N(C)C)cccc23)C(C(=O)O)C1 (configuration not stated)	–	4
COc1ccc2ccc(S(=O)(=O)NC(CCCN=C(N)N)C(=O)N3CCCCC3C(=O)O)cc2c1 (configuration not stated)	–	5
COc1cc2ccc(S(=O)(=O)NC(CCCN=C(N)N)C(=O)N(C)CC(=O)O)cc2cc1OC (configuration not stated)	–	> 100
CCCCN(CC(=O)O)C(=O)C(CCCN=C(N)N)NS(=O)(=O)c1ccc2ccc(C)cc2c1 (configuration not stated)	–	0.3
COc1cc2ccc(S(=O)(=O)NC(CCCN=C(N)N)C(=O)N(CC(=O)O)CC(C)C)cc2cc1OC (configuration not stated)	–	2
COCCN(CC(=O)O)C(=O)C(CCCN=C(N)N)NS(=O)(=O)c1cccc2c(N(C)C)cccc12 (configuration not stated)	–	5
Cc1ccc2ccc(S(=O)(=O)NC(CCCN=C(N)N)C(=O)N(CC(=O)O)CC3CCCO3)cc2c1 (configuration not stated)	–	0.2
CC(C)C1CCN(C(=O)C(CCCN=C(N)N)NS(=O)(=O)c2ccc3cc(Cl)ccc3c2)C(C(=O)O)C1 (configuration not stated)	–	0.5
COCCN(CC(=O)O)C(=O)C(CCCN=C(N)N)NS(=O)(=O)c1ccc2ccc(OC)cc2c1 (configuration not stated)	–	0.5
CCOc1cc2ccc(S(=O)(=O)NC(CCCN=C(N)N)C(=O)N(CCOC)CC(=O)O)cc2cc1OCC (configuration not stated)	–	15
COCCN(CC(=O)O)C(=O)C(CCCN=C(N)N)NS(=O)(=O)c1cccc2cc(C)c(C)cc12 (configuration not stated)	–	10
CC1CCN(C(=O)C(CCCN=C(N)N)NS(=O)(=O)c2cccc3ccccc23)C(C(=O)O)C1 (configuration not stated)	–	1
COCCN(CC(=O)O)C(=O)C(CCCN=C(N)N)NS(=O)(=O)c1ccc2cc(OC)c(OC)cc2c1 (configuration not stated)	–	0.3
COCCN(CC(=O)O)C(=O)C(CCCN=C(N)N)NS(=O)(=O)c1cccc2c1CCCC2 (configuration not stated)	10	–
COc1cc2ccc(S(=O)(=O)NC(CCCN=C(N)N)C(=O)N(CCc3ccccc3)CC(=O)O)cc2cc1OC (configuration not stated)	–	3
COc1cc2ccc(S(=O)(=O)NC(CCCN=C(N)N)C(=O)N(CC(=O)O)C3CCCCCC3)cc2cc1OC (configuration not stated)	–	15
CCCN(CC(=O)O)C(=O)C(CCCN=C(N)N)NS(=O)(=O)c1ccc2cc(OC)c(OC)cc2c1 (configuration not stated)	–	8
CCCCCCCCN(CC(=O)O)C(=O)C(CCCN=C(N)N)NS(=O)(=O)c1ccc2cc(OC)c(OC)cc2c1 (configuration not stated)	–	> 100
COc1ccc2cc(S(=O)(=O)NC(CCCN=C(N)N)C(=O)N3CCCCC3C(=O)O)ccc2c1 (configuration not stated)	–	100
COCCN(CC(=O)O)C(=O)C(CCCN=C(N)N)NS(=O)(=O)c1ccc2oc3ccccc3c2c1 (configuration not stated)	0.35	–
COc1cc2ccc(S(=O)(=O)NC(CCCN=C(N)N)C(=O)N(CC(=O)O)Cc3ccccc3)cc2cc1OC (configuration not stated)	–	2.5
CCSCCN(CC(=O)O)C(=O)C(CCCN=C(N)N)NS(=O)(=O)c1ccc2cc(OC)c(OC)cc2c1 (configuration not stated)	–	5
COCCN(CCC(=O)O)C(=O)C(CCCN=C(N)N)NS(=O)(=O)c1ccc2cc(OC)c(OC)cc2c1 (configuration not stated)	–	3.7
COc1ccc2ccc(S(=O)(=O)NC(CCCN=C(N)N)C(=O)N3CCCCCC3C(=O)O)cc2c1 (configuration not stated)	2.5	–
CCCCN(CC(=O)O)C(=O)C(CCCN=C(N)N)NS(=O)(=O)c1cccc2c1CCCC2 (configuration not stated)	20	–

SMILES	IC50 (Prothrombin [1]) [µM]	IC50 (Prothrombin [2]) [µM]
CN(C)c1cccc2c(S(=O)(=O)NC(CCCN=C(N)N)C(=O)N(CC(=O)O)CC3CCCO3)cccc12 (configuration not stated)	–	2
CCCC1CCN(C(=O)C(CCCN=C(N)N)NS(=O)(=O)c2ccc3cc(OC)c(OC)cc3c2)C(C(=O)O)C1 (configuration not stated)	0.5	–
CCCCN(CC(=O)O)C(=O)C(CCCN=C(N)N)NS(=O)(=O)c1cc(OC)c2cc(OC)ccc2c1 (configuration not stated)	–	2
COCCN(CC(=O)O)C(=O)C(CCCN=C(N)N)NS(=O)(=O)c1ccc2sc3ccccc3c2c1 (configuration not stated)	0.45	–
CCCCN(CC(=O)O)C(=O)C(CCCN=C(N)N)NS(=O)(=O)c1cccc2c(N(C)C)cccc12 (configuration not stated)	–	4
COc1cc2ccc(S(=O)(=O)NC(CCCN=C(N)N)C(=O)N(CC(=O)O)C3CCCCC3)cc2cc1OC (configuration not stated)	–	5
COc1ccc2ccc(S(=O)(=O)NC(CCCN=C(N)N)C(=O)N(CC(=O)O)CC3CCCO3)cc2c1 (configuration not stated)	–	0.15
COCCCN(CC(=O)O)C(=O)C(CCCN=C(N)N)NS(=O)(=O)c1ccc2cc(OC)c(OC)cc2c1 (configuration not stated)	–	5
COc1cc2ccc(S(=O)(=O)NC(CCCN=C(N)N)C(=O)N(CC(=O)O)CC3CCCO3)cc2cc1OC (configuration not stated)	–	0.2
CCC1CCN(C(=O)C(CCCN=C(N)N)NS(=O)(=O)c2ccc3ccc(OC)cc3c2)C(C(=O)O)C1 (configuration not stated)	–	0.1
CCCCCN(CC(=O)O)C(=O)C(CCCN=C(N)N)NS(=O)(=O)c1ccc2cc(OC)c(OC)cc2c1 (configuration not stated)	–	1
Cc1ccc2cc(S(=O)(=O)NC(CCCN=C(N)N)C(=O)N3CCC(C(C)C)CC3C(=O)O)ccc2c1 (configuration not stated)	–	0.35
COc1cc2ccc(S(=O)(=O)NC(CCCN=C(N)N)C(=O)N3CCCC(C(=O)O)C3)cc2cc1OC (configuration not stated)	–	40
CC1CCN(C(=O)C(CCCN=C(N)N)NS(=O)(=O)c2cccc3c2CCCC3)C(C(=O)O)C1 (configuration not stated)	–	0.6
COCCN(CC(=O)O)C(=O)C(CCCN=C(N)N)NS(=O)(=O)c1cc(OC)c2cc(OC)ccc2c1 (configuration not stated)	–	4
Cc1cc2ccc(S(=O)(=O)NC(CCCN=C(N)N)C(=O)N(CC(=O)O)CC3CCCO3)cc2cc1C (configuration not stated)	–	3
Cc1ccc2ccc(S(=O)(=O)NC(CCCN=C(N)N)C(=O)N3CCC(C)CC3C(=O)O)cc2c1 (configuration not stated)	–	0.15
CCCCCCN(CC(=O)O)C(=O)C(CCCN=C(N)N)NS(=O)(=O)c1ccc2cc(OC)c(OC)cc2c1 (configuration not stated)	–	0.15
COCCN(CC(=O)O)C(=O)C(CCCN=C(N)N)NS(=O)(=O)c1ccc2ccc(C)cc2c1 (configuration not stated)	–	0.35
COc1ccc2ccc(S(=O)(=O)NC(CCCN=C(N)N)C(=O)N3CCC(C(C)C)CC3C(=O)O)cc2c1 (configuration not stated)	–	0.15
N=C(N)NCCCC(NS(=O)(=O)c1cccc2ccccc12)C(=O)N(CC(=O)O)CC1CCCO1 (configuration not stated)	–	30
COCCN(CC(=O)O)C(=O)C(CCCN=C(N)N)NS(=O)(=O)c1cccc2c(OC)cccc12 (configuration not stated)	–	2.5
CC1CCN(C(=O)C(CCCN=C(N)N)NS(=O)(=O)c2ccc3c(c2)-c2ccccc2C3)C(C(=O)O)C1 (configuration not stated)	–	0.1
CCCCN(CC(=O)O)C(=O)C(CCCN=C(N)N)NS(=O)(=O)c1cccc2c(OC)cccc12 (configuration not stated)	–	4
CCCCN(CC(=O)O)C(=O)C(CCCN=C(N)N)NS(=O)(=O)c1ccc2c(c1)CCCC2 (configuration not stated)	60	–
COc1ccc2cc(S(=O)(=O)NC(CCCN=C(N)N)C(=O)N3CCC(C)CC3C(=O)O)cc(OC)c2c1 (configuration not stated)	–	0.34

SMILES	IC50 (Prothrombin [1]) [µM]	IC50 (Prothrombin [2]) [µM]
COc1cc2ccc(S(=O)(=O)NC(CCCN=C(N)N)C(=O)N3CCC(C)CC3C(=O)O)cc2cc1OC (configuration not stated)	–	0.4
CCCCN(CC(=O)O)C(=O)C(CCCN=C(N)N)NS(=O)(=O)c1ccc2ccccc2c1 (configuration not stated)	–	> 100
CCCCN(CC(=O)O)C(=O)C(CCCN=C(N)N)NS(=O)(=O)c1ccc2cc(OC)ccc2c1 (configuration not stated)	–	0.5
CC(C)C1CCN(C(=O)C(CCCN=C(N)N)NS(=O)(=O)c2ccc3ccccc3c2)C(C(=O)O)C1 (configuration not stated)	–	50
COCCN(CC(=O)O)C(=O)C(CCCN=C(N)N)NS(=O)(=O)c1ccc2c(c1)OCCO2 (configuration not stated)	32	–
CCCCN(CC(=O)O)C(=O)C(CCCN=C(N)N)NS(=O)(=O)c1ccc2ccc(OC)cc2c1 (configuration not stated)	–	0.5
CCCCN(CC(=O)O)C(=O)C(CCCN=C(N)N)NS(=O)(=O)c1ccc2oc3ccccc3c2c1 (configuration not stated)	0.3	–
CC1CCN(C(=O)C(CCCN=C(N)N)NS(=O)(=O)c2cccc3c2oc2ccccc23)C(C(=O)O)C1 (configuration not stated)	0.15	–
COc1cc2ccc(S(=O)(=O)NC(CCCN=C(N)N)C(=O)N3CCC(C(=O)O)CC3)cc2cc1OC (configuration not stated)	–	150
CCOc1cc2ccc(S(=O)(=O)NC(CCCN=C(N)N)C(=O)N3CCC(C)CC3C(=O)O)cc2cc1OCC (configuration not stated)	–	4
CCCCN(CC(=O)O)C(=O)C(CCCN=C(N)N)NS(=O)(=O)c1ccc2cc(OC)c(OC)cc2c1 (configuration not stated)	–	0.3
COCCN(CCCC(=O)O)C(=O)C(CCCN=C(N)N)NS(=O)(=O)c1ccc2cc(OC)c(OC)cc2c1 (configuration not stated)	–	40
COCCN(CC(=O)O)C(=O)C(CCCN=C(N)N)NS(=O)(=O)c1cccc2ccccc12 (configuration not stated)	–	30
COc1cc2ccc(S(=O)(=O)NC(CCCN=C(N)N)C(=O)N3C(C(=O)O)CCCC3C(=O)O)cc2cc1OC (configuration not stated)	–	> 100
CCCCCN(CC(=O)O)C(=O)C(CCCN=C(N)N)NS(=O)(=O)c1cccc2c1CCCC2 (configuration not stated)	100	–
COc1ccc2ccc(S(=O)(=O)NC(CCCN=C(N)N)C(=O)N3CCC(C)CC3C(=O)O)cc2c1 (configuration not stated)	–	0.15
CC1CCN(C(=O)C(CCCN=C(N)N)NS(=O)(=O)c2ccc3oc4ccccc4c3c2)C(C(=O)O)C1 (configuration not stated)	0.1	–
COc1cc2ccc(S(=O)(=O)NC(CCCN=C(N)N)C(=O)N3CCC(c4ccccc4)CC3C(=O)O)cc2cc1OC (configuration not stated)	12	–
CC1CCN(C(=O)C(CCCN=C(N)N)NS(=O)(=O)c2ccc3c(c2)Sc2ccccc2O3)C(C(=O)O)C1 (configuration not stated)	0.25	–
COCCN(CC(=O)O)C(=O)C(CCCN=C(N)N)NS(=O)(=O)c1ccc2c(c1)Sc1ccccc1O2 (configuration not stated)	0.35	–
COc1cc2ccc(S(=O)(=O)NC(CCCN=C(N)N)C(=O)N3Cc4ccccc4C3C(=O)O)cc2cc1OC (configuration not stated)	1.5	–
COCCN(C(=O)C(CCCN=C(N)N)NS(=O)(=O)c1ccc2cc(OC)c(OC)cc2c1)C(C)C(=O)O (configuration not stated)	–	5
COc1cc2ccc(S(=O)(=O)NC(CCCN=C(N)N)C(=O)N3CCCCC3C(=O)O)cc2cc1OC (configuration not stated)	–	4.5
COc1cc2ccc(S(=O)(=O)NC(CCCN=C(N)N)C(=O)N(CC(=O)O)CC3CCCCC3)cc2cc1OC (configuration not stated)	–	15
Cc1ccc2ccc(S(=O)(=O)NC(CCCN=C(N)N)C(=O)N3CCC(C(C)C)CC3C(=O)O)cc2c1 (configuration not stated)	–	0.1
